# Results as given in US4073910A, “Method for treatment of diabetes” (Eisai Co., Ltd., priority 1975, dated 1978).
# Values joined by “and” are separate entries in the source; they are usually repeats but may differ in a detail not shown here. Equal entries are not always repeated.
# Experiments:
# [1] = test system: alloxan diabetic rats; experiment: Effect on alloxan diabetes in rats (glycosuria, blood-sugar, urinary volume); type: in vivo, male wistar rats; details: for restraining effect on quantity of glycosuria: Compound TA 80 mg/Kg, Compound NA 20 mg/Kg p.o. once a day for three weeks; for quantity of blood-sugar versus alloxan diabetic control group (in words): FIGS. 3 and 4, after 24 hours and 12 hours fasting; for effect for treatment of alloxan-diabetes (conclusion): alloxan diabetic rats; for blood-sugar level compared with diabetic control group (summary) / quantity of glycosuria compared with diabetic control group (summary) / urinary volume compared with diabetic control group (summary): summary of experiments
# Method: Experiments were carried out in six-week male wistar rats weighing approximately 180 g. […] After 10 days, animals displaying abnormal quantity of glycosuria were selected as "diabetic" animals. Abnormality was arbitrarily determined as quantity of glycosuria for 24 hours over 0.5 g. Total 32 alloxan diabetic rats were divided into four aliquot groups of every eight rats at random. […] These rats were placed in the metabolism cage equiped with solid foods and drinking water. The foods were removed after 9 hours, and urine was collected from said rats for 24 hours. In other experience, total 45 alloxan diabetic rats were divided into three groups of aliquot. […] These rats were placed in the metabolism cages equiped with drinking water, and urine was collected for 12 hours. Blood was also collected in each case from the carotid artery of the rats under anesthesia. for the urine and the plasma, the following biochemical tests were effected. (a) Quantity of the blood-sugar and the glycosuria: Anthrone method.
# [2] = Test of acute toxicity in rats; type: in vivo; details: rat, in vivo
# Method: (§1) Acute toxicity of Compound TN for males and females of mice rats were tested.
# [3] = test system: rats; experiment: Test of acute toxicity in rats; type: in vivo; details: rats, administerable maximum quantity
# Method: as §1
# [4] = Test of acute toxicity in mice; type: in vivo; details: mouse, in vivo
# Method: as §1
# [5] = test system: mice; experiment: Test of acute toxicity in mice; type: in vivo; details: mice, administerable maximum quantity
# Method: as §1
# [6] = test system: rats; experiment: Test of subacute and chronic toxicity in rats; type: in vivo; details: 100 to 1000 mg/Kg, three or six months
# [7] = test system: beagles; experiment: Test of subacute and chronic toxicity in beagles; type: in vivo; details: 100 mg/Kg, three or six months
# [8] = test system: pregnant mice; experiment: Test for malformation in pregnant mice; type: in vivo; details: oral, 100 to 1200 mg/Kg
# [9] = test system: pregnant rats; experiment: Test for malformation in pregnant rats; type: in vivo; details: oral, 100 to 1200 mg/Kg
# [10] = test system: diabetics; experiment: Clinical data: blood sugar and ΔIRI/ΔBS in glucose tolerance test of diabetics; type: in vivo, human
# Method: There were selected 15 diabetics, whose blood-sugar values are 111-150 mg;, respectively. The diabetics are 56.8 years old in average, ranging from 49 to 65 years old. They consist of 10 males and 5 females.
# It was previously confirmed that the body weights of the diabetics are almost not varied during the continuation of dietetics.
# There were orally administered a daily dose of six capsules for 8 weeks, each capsule containing 100 mg of the Compound TN.
# Before and after the administration of the compound of the present invention, 50 g of sugar are orally administered to carry out glucose tolerance test. Quantities of blood-sugar were measured by means of Autoanalyzer with respect to the blood which was collected from the vein of the elbow. Further, quantities of insulin were measured, in accordance with Double antibody technic, before the glucose tolerance and after 30 minutes tolerance. From the following resulting quantities, value of ΔIRI/ΔBS was calculated.
# [11] = Solubility; type: physicochemical
# [12] = test system: blood-sugar amount; details: reported in 1955; cited from earlier work
# [13] = test system: human diabetics (University Group Diabetes Program); details: oral administration, 8 years; cited from earlier work
# [14] = FIG. 1, urine for 24 hours, 100 mg/Kg p.o. once a day for three weeks
structure (smiles),measurement,setting,value
"CC(=O)Oc1c(C)c(C)c2c(c1C)CCC(C)(CCCC(C)CCCC(C)CCCC(C)C)O2 (racemic) [Compound TA, dl-α-tocopheryl acetate]",restraining effect on quantity of glycosuria,"[1]; FIG. 1, urine for 24 hours",the restraining effect could not be found
same,quantity of blood-sugar versus alloxan diabetic control group (in words),[1]; three weeks p.o.,there can not be found the differences
same,effect for treatment of alloxan-diabetes (conclusion),[1]; three weeks p.o.,such effect can not be found
same,blood-sugar level compared with diabetic control group (summary),[1]; three weeks p.o.,there could not be found the difference
same,quantity of glycosuria compared with diabetic control group (summary),[1]; three weeks p.o.,there could not be found the difference
same,urinary volume compared with diabetic control group (summary),[1]; three weeks p.o.,there could not be found the difference
"Cc1c(C)c2c(c(C)c1OC(=O)c1cccnc1)CCC(C)(CCCC(C)CCCC(C)CCCC(C)C)O2 (racemic) [Compound TN, dl-α-tocopherol nicotinate]",LD50,[2]; im,> 10000 mg/kg
same,LD50,[2]; ip,> 2000 mg/kg
same,LD50,[2]; iv,> 250 mg/kg
same,LD50,[2]; po,> 15000 mg/kg
same,LD50,[2]; sc,> 15000 mg/kg
same,deaths in acute toxicity test,[3],there is no case wherein the test animals died
same,LD50,[4]; im,> 15000 mg/kg
same,LD50,[4]; ip,> 4000 mg/kg
same,LD50,[4]; iv,> 1000 mg/kg
same,LD50,[4]; po,> 20000 mg/kg
same,LD50,[4]; sc,> 20000 mg/kg
same,deaths in acute toxicity test,[5],there is no case wherein the test animals died
same,"appearance of toxicity (hematological, blood biochemical, histological searches)",[6],there could not be entirely recognized the appearance of the toxicity
same,death case,[6],There could not be found the death case
same,restraint of weight,[6],There could not be found the death case and the restraint of weight
same,"appearance of toxicity (hematological, blood biochemical, histological searches)",[7],there could not be entirely recognized the appearance of the toxicity
same,death case,[7],There could not be found the death case
same,restraint of weight,[7],There could not be found the death case and the restraint of weight
same,"effects for mothers, foetuses and neonatal animals",[8],"there could not be recognized any effects for mothers, foetuses and neonatal animals"
same,malformation,[8],no malformation could be entirely found
same,"effects for mothers, foetuses and neonatal animals",[9],"there could not be recognized any effects for mothers, foetuses and neonatal animals"
same,malformation,[9],no malformation could be entirely found
same,reduction of quantity of glycosuria versus diabetic control group (mean),[1]; [14],1.3 g/day
same,reduction of quantity of glycosuria versus diabetic control group (percent),[1]; [14],47%
same,quantity of glycosuria,"[1]; FIG. 2, urine for 12 hours, p.o. once a day for three weeks, TN 100 mg/Kg or TA 88 + NA 20 mg/Kg, diabetic control 1.24 g/12 hours",0.76 g/12 hours
same,quantity of glycosuria versus diabetic control group (in words),"[1]; FIG. 2, urine for 12 hours, three weeks p.o.",clearly reduced
same,urinary volume (in words),"[1]; FIG. 5, after 12 hours, three weeks p.o.",reduces
same,quantity of blood-sugar versus alloxan diabetic control group (in words),[1]; three weeks p.o.,reduces significantly the quantity of the blood-sugar
same,effect for treatment of alloxan-diabetes (conclusion),[1]; three weeks p.o.,unique effect for treatment of alloxan-diabetes
same,blood-sugar level compared with diabetic control group (summary),[1]; three weeks p.o.,small such as P = 0.05
same,quantity of glycosuria compared with diabetic control group (summary),[1]; three weeks p.o.,small such as P = 0.05
same,urinary volume compared with diabetic control group (summary),[1]; three weeks p.o.,small such as P = 0.05
same,degree of adiposity,"[10]; 15 diabetics, 8 weeks",there could hardly be found a tolerance with respect to the degree of adiposity
same,Blood Sugar (2) FBS (fasting blood sugar),"[10]; individual patient, after administration, 600 mg/day p.o. (six 100 mg capsules) for 8 weeks",114 mg% and 126 mg% and 111 mg% and 124 mg% and 122 mg% and 119 mg% and 123 mg% and 104 mg% and 110 mg% and 121 mg% and 118 mg%
same,ΔIRI/ΔBS (30 min.),"[10]; individual patient, after administration, 8 weeks, 30 min. tolerance",0.39 and 0.31 and 0.38 and 0.36 and 0.41 and 0.33 and 0.42 and 0.45 and 0.44 and 0.35 and 0.49
same,Blood Sugar (2) 1 hour,"[10]; individual patient, after administration, 8 weeks, 1 hour after 50 g glucose tolerance",196 mg% and 193 mg% and 178 mg% and 198 mg% and 221 mg% and 201 mg% and 205 mg% and 174 mg% and 164 mg% and 211 mg% and 214 mg% and 195 mg% and 185 mg% and 197 mg%
same,Blood Sugar (2) 2 hours,"[10]; individual patient, after administration, 8 weeks, 2 hours after 50 g glucose tolerance",185 mg% and 184 mg% and 164 mg% and 195 mg% and 189 mg% and 178 mg% and 186 mg% and 154 mg% and 179 mg% and 181 mg% and 163 mg% and 172 mg% and 190 mg%
same,Blood Sugar (2) 3 hours,"[10]; individual patient, after administration, 8 weeks, 3 hours after 50 g glucose tolerance",136 mg% and 114 mg% and 121 mg% and 179 mg% and 175 mg% and 154 mg% and 171 mg% and 141 mg% and 105 mg% and 172 mg% and 130 mg% and 153 mg%
same,"Blood Sugar (2) 1 hour, mean","[10]; mean of 15, after administration, 8 weeks, 1 hour tolerance, before administration 226.5, P<0.05",193.1 mg%
same,"Blood Sugar (2) 2 hours, mean","[10]; mean of 15, after administration, 8 weeks, 2 hours tolerance, before administration 203.7, P<0.05",179.3 mg%
same,"Blood Sugar (2) 3 hours, mean","[10]; mean of 15, after administration, 8 weeks, 3 hours tolerance, before administration 166.1, P<0.05",145.5 mg%
same,"ΔIRI/ΔBS (30 min.), mean","[10]; mean of 15, after administration, 8 weeks, before administration 0.319, P<0.001",0.394
same,"Blood Sugar (2) FBS, mean","[10]; mean of 15 diabetics, after administration, 8 weeks, before administration 128.1, P<0.001",116.3 mg%
same,"solubility in acetone, benzene, chloroform, ether and ethanol",[11]; organic solvents,easily soluble
same,solubility in water,[11]; water,hardly soluble
CCCCNC(=O)NS(=O)(=O)c1ccc(N)cc1 [Carbutamide],effect for depressing a blood-sugar amount,[12],remarkable effect for depressing a blood-sugar amount
"O=C(O)c1cccnc1 [Compound NA, nicotinic acid]",restraining effect on quantity of glycosuria,"[1]; FIG. 1, urine for 24 hours",the restraining effect could not be found
same,quantity of blood-sugar versus alloxan diabetic control group (in words),[1]; three weeks p.o.,there can not be found the differences
same,effect for treatment of alloxan-diabetes (conclusion),[1]; three weeks p.o.,such effect can not be found
same,blood-sugar level compared with diabetic control group (summary),[1]; three weeks p.o.,there could not be found the difference
same,quantity of glycosuria compared with diabetic control group (summary),[1]; three weeks p.o.,there could not be found the difference
same,urinary volume compared with diabetic control group (summary),[1]; three weeks p.o.,there could not be found the difference
[H]/N=C(/N)N/C(=N/[H])NCCc1ccccc1 [Phenformin],"number of deaths due to heart-blood vessel disorder, compared with placebo group",[13],2.5 times
CCCCNC(=O)NS(=O)(=O)c1ccc(C)cc1 [Tolbutamide],"number of deaths due to heart-blood vessel disorder, compared with placebo group",[13],2.5 times
